# Results as given in PMC9602571, “Discovery of a Dual SENP1 and SENP2 Inhibitor” (International Journal of Molecular Sciences, 2022).
# What was measured:
# SENP1 [1] = target: T1, SENP1 (Homo sapiens, UniProt Q9P0U3); assay: Fluorogenic SENP1 assay, SUMO2-AMC substrate; format: biochemical; conditions: n = 2
# T1 construct: Human recombinant, His6-SENP1 Catalytic Domain; His6 (N); purchased Boston Biochem (Bio-Techne AG) E-700
# T1 sequence (Q9P0U3 450-613 limits assumed): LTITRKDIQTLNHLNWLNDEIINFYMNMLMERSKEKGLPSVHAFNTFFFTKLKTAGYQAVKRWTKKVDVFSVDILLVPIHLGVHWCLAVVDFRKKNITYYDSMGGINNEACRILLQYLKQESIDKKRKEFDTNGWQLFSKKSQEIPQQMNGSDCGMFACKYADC
# Method: Human recombinant, His6-SENP1 Catalytic Domain (Boston Biochem Cat# E-700, Bio-Techne AG, Zug, Switzerland) was prepared in reaction buffer (50 mM HEPES, 150 mM NaCl, 0.5 mM EDTA, 1 mM DTT, pH 7.5, 0.01% CHAPS). To this solution, a 20 mM or 50 mM inhibitor stock solution in DMSO was added and the mixture was incubated for 15 min at ambient temperature. […] The data were analyzed by taking the slope (signal/time) of the linear portion of measurement. The slope was calculated using Excel and the curve fits were performed using GraphPad Prism7 with a four-parameter least-squares fit. The final reaction conditions contained 0.02 nM SENP1 and 300 nM SUMO1/2 or 3-AMC).
# SENP2 = target: T2, SENP2 (Homo sapiens, UniProt Q9HC62); assay: Fluorogenic SENP2 assay, SUMO1-AMC substrate; format: biochemical; conditions: n = 2
# T2 construct: Human recombinant catalytic domain expressed in E. coli; purchased Enzo BML-UW9765; host or cells: E. coli
# T2 sequence (Q9HC62 396-560 limits assumed): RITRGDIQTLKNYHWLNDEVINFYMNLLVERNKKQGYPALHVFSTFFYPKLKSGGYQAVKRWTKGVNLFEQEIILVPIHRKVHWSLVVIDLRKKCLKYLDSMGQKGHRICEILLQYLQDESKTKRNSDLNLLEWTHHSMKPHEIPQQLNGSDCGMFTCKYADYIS
# Method: The IC50 measurements were conducted at Reaction Biology Corporation, Malvern, PA, USA, with two replications using 10 concentrations starting at 200 μM with a three-fold dilution. Curve fits were performed where the enzyme activities at the highest concentration of compounds were less than 65%. UCH-L3 I was used as a control inhibitor. To SENP2 (Enzo Cat# BML-UW9765, Human recombinant catalytic domain expressed in E. coli.) in reaction buffer (50 mM HEPES, 150 mM NaCl, 0.5 mM EDTA, 1 mM DTT, pH 7.5, 0.01% CHAPS) was delivered the compound stock solution by acoustic technology (Echo550; nanoliter range) and subsequently incubated for 15 min at ambient temperature. The substrate SUMO1-AMC (R&D Systems Cat# UL-551-050, Lot# 07613314A, Fluorescence labeled full-length SUMO1 protein) was delivered to the well-plate to initiate the reaction. The enzyme activities were monitored (Ex/Em = 355/460 nm) as a time-course measurement of the increase in fluorescence signal from SUMO1-AMC for 90 min at ambient temperature. The data were analyzed by taking the slope (signal/time) of linear portion of measurement. The slope was calculated using Excel and the curve fits were performed using GraphPad Prism7 with a four-parameter least-squares fit. The final reaction conditions contained 0.015 nM SENP2 and 300 nM SUMO1/2 or 3-AMC.
# SENP1 [2] = target: T1, SENP1; assay: SENP1 endopeptidase activity with proSUMO3 (SDS gel); format: biochemical; conditions: inhibitor 200 µM, proSUMO3 5 µM, 37 °C, 1 h
# Method: Measurements were performed using six different inhibitor concentrations starting at 200 μM of 11 with three-fold dilution. Human recombinant, His6-SENP1 Catalytic Domain (Boston Biochem Cat# E-700, Bio-Techne AG, Zug, Switzerland) was prepared in reaction buffer (50 mM HEPES, 150 mM NaCl 0.5 mM EDTA, 1 mM DTT, pH 7.5, 0.01% CHAPS) as 555 nM solution. A 20 mM compound DMSO stock-solution (1.1 µL) was added to the freshly prepared 555 nM enzyme solution (98.9 µL). […] Then, 50 µM proSUMO3 (5 µL) was added to the freshly prepared enzyme inhibitor solution (45 µL) and incubated for 60 min at 37 °C and subsequently the reaction was stopped by adding 4 × Laemmli-Buffer (16.7 µL) and denaturing the protein at 100 °C for 30 min. Those solutions (10 µL) were loaded on a casted 15% sodium dodecyl sulfate polyacrylamide gel and separated on a Mini-PROTEAN Tetra Cell (Bio-Rad, Hercules, CA, USA). After SDS-PAGE gel electrophoresis separation, the gels were stained with staining solution Bio-Safe Coomassie Brilliant Blue G-250 (BioRad) for 60 min. De-staining was performed with 40% (v/v) methanol, 10% (v/v) glacial acetic acid, 50% (v/v) Milli-Q water until protein bands became visible.
# SENP1 [3] = target: T1, SENP1; assay: Photo crosslinking experiments with SENP1; format: binding; conditions: competitor 400 µM, probe 56 200 µM
# Method: A buffer exchange of the commercially available 6 × His-SENP1 Protein (Boston Biochem Cat# E-700) to a 50 mM HEPES, 150 mM NaCl; 0.5 mM EDTA, 1 mM DTT, pH 7.5 was performed. A total of 200 μM of the photo affinity probe 56 with or without competitor molecule 11 (400 μM) was incubated in 10 uM SENP1 for 30 min at 0 °C. Subsequently, the mixtures were irradiated in a Proma UV exposure unit equipped with four 8 Watt lamps (Hitachi FL8BL-8, ~350 nm) for 30 min at 0 °C. Then, 50 µL of the crosslinked proteins were mixed with freshly prepared click mix solution (50 μL; 1 mM CuSO4, 1 mM TCEP, 100 uM THPTA from a 5 mM DMSO stock, dissolved in Milli-Q Water) and a 10 mM stock solution of azide fluor 545 (1 μL) and incubated at 0 °C for 14 h. […] Protein samples for SDS-PAGE were first prepared in 1 × Laemmli sample buffer (diluted from 4 × Laemmli sample buffer (ROTI®Load), and subsequently denatured at 100 °C for 15 min. After SDS-PAGE gel electrophoresis separation, the fluorescence was visualized (Ex. 520 nm, Em. 575 nm) on the SDS PAGE gel using ImageQuant^TM 4000 LAS (GE Healthcare, Chicago, IL, USA). Secondly, the gels were stained with Bio-Safe Coomassie Brilliant Blue G-250 (BioRad) for 60 min. De-staining was performed with 40% (v/v) methanol, 10% (v/v) glacial acetic acid, 50% (v/v) Milli-Q water until protein bands became visible.
smiles,measurement,setting,value
"O=C(Cn1nnc(-c2ccccc2)n1)N1c2ccccc2NC(=O)C12CCCC2 [Compound 11, 1′-[2-(5-Phenyl-2H-1,2,3,4-tetrazol-2-yl)acetyl]-3′,4′-dihydro-1′H-spiro[cyclopentane-1,2′-quinoxalin]-3′-one]",IC50,SENP1 [1],43 µM
same,IC50,SENP2,2.3 µM
same,inhibition of SENP1 endopeptidase activity (proSUMO3 maturation),SENP1 [2],full inhibition
same,fluorescently labelled band of SENP1 in competition with photo probe 56,SENP1 [3],significantly decreased
same,melting point,,237 °C (dec.)
